system: Tripleurospermum inodorum; assay: Pre-emergence herbicidal effect against MATIN; assay type: in vivo; settings: 1280 g/ha, visual score after 3 weeks, 100% = plants have died, 0% = like control plants
Procedure, shortened: (§1)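 Percent herbicidal activity (100% = dead, 0% = as control) was rated by eye 3 weeks post-application in greenhouse pots of sandy loam, with treatment sprayed onto the covering soil before emergence.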

COC(=O)CNC(=O)CSc1nn(-c2ccccc2F)c(-c2cncc(F)c2)c1Br [VII-009] was tested. Which “Pre-emergence action against MATIN” value did it give?
The value was 100%.

With COC(=O)CCNC(=O)CSc1nn(-c2ccccc2F)c(-c2cncc(F)c2)c1Br [VII-010] as the compound, how does the “Pre-emergence action against MATIN” value read?
Its value is 100%.

system: Bassia scoparia; assay: Pre-emergence herbicidal effect against KCHSC; assay type: in vivo; settings: 1280 g/ha, visual score after 3 weeks, 100% = plants have died, 0% = like control plants
Excerpt: (§2) 1. Pre-emergence herbicidal effect and crop plant compatibility Seeds of monocotyledonous and dicotyledonous weed plants and crop plants are laid out in sandy loam soil in wood-fibre pots and covered with soil. The compounds of the invention, formulated in the form of wettable powders (WP) or as emulsion concentrates (EC), are then applied to the surface of the covering soil as aqueous suspension or emulsion at a water application rate equating to 600 to 800 L/ha with addition of 0.2% wetting agent. After the treatment, the pots are placed in a greenhouse and kept under good growth conditions for the trial plants. The damage to the test plants is scored visually after a test period of 3 weeks by comparison with untreated controls (herbicidal activity in percent (%): 100% activity=the plants have died, 0% activity=like control plants). [table]

COC(=O)CCNC(=O)CSc1nn(-c2ccccc2F)c(-c2cncc(F)c2)c1Br [VII-010] was tested. Which “Pre-emergence action against KCHSC” value did it give?
Its value is 90%.

system: Tripleurospermum inodorum; assay: Post-emergence herbicidal effect against MATIN; assay type: in vivo; settings: 1280 g/ha, visual assessment about 3 weeks after treatment, 100% = plants have died, 0% = like control plants
Procedure, shortened: (§3)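 Percent herbicidal effect, judged visually against untreated plants about 3 weeks after treatment, where 100% means dead plants. Treatment was a foliar spray of WP or EC formulations (600 to 800 l/ha water, 0.2% wetting agent) on one-leaf-stage plants raised in sandy loam.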

Which “Post-emergence action against MATIN” value does the source give for COC(=O)CNC(=O)CSc1nn(-c2ccccc2F)c(-c2cncc(F)c2)c1Br [VII-009] here?
The value was 90%.

How did the “Post-emergence action against MATIN” value turn out when COC(=O)CCNC(=O)CSc1nn(-c2ccccc2F)c(-c2cncc(F)c2)c1Br [VII-010] was run?
Its value is 90%.

system: Veronica persica; assay: Post-emergence herbicidal effect against VERPE; assay type: in vivo; settings: 1280 g/ha, visual assessment about 3 weeks after treatment, 100% = plants have died, 0% = like control plants
Procedure, shortened: as §3

How did the “Post-emergence action against VERPE” value turn out when COC(=O)CNC(=O)CSc1nn(-c2ccccc2F)c(-c2cncc(F)c2)c1Br [VII-009] was run?
Its value is 90%.

How did the “Post-emergence action against VERPE” value turn out when COC(=O)CCNC(=O)CSc1nn(-c2ccccc2F)c(-c2cncc(F)c2)c1Br [VII-010] was run?
Its value is 90%.

system: Lolium rigidum; assay: Post-emergence herbicidal effect against LOLRI; assay type: in vivo; settings: 1280 g/ha, visual score after about 3 weeks, 100% = plants have died, 0% = like control plants
Protocol: [table] 2. Post-emergence herbicidal effect and crop plant compatibility Seeds of monocotyledonous and dicotyledonous weed and crop plants are laid out in sandy loam soil in wood-fibre pots, covered with soil and cultivated in a greenhouse under good growth conditions. 2 to 3 weeks after sowing, the test plants are treated at the one-leaf stage. The compounds of the invention, formulated in the form of wettable powders (WP) or as emulsion concentrates (EC), are then sprayed onto the green parts of the plants as aqueous suspension or emulsion at a water application rate equating to 600 to 800 l/ha with addition of 0.2% wetting agent. After the test plants have been left to stand in the greenhouse under optimal growth conditions for about 3 weeks, the action of the preparations is assessed visually in comparison to untreated controls (herbicidal action in percent (%): 100% activity=the plants have died, 0% activity=like control plants).

With COC(=O)CCNC(=O)CSc1nn(-c2ccccc2F)c(-c2cncc(F)c2)c1Br [VII-010] as the compound, how does the “Post-emergence action against LOLRI” value read?
Its value is 90%.

system: Alopecurus myosuroides; assay: Pre-emergence herbicidal effect against ALOMY; assay type: in vivo; settings: 1280 g/ha, visual score after 3 weeks, 100% = plants have died, 0% = like control plants
Procedure, shortened: as §1

For COC(=O)CNC(=O)CSc1nn(-c2ccccc2F)c(-c2cncc(F)c2)c1Br [VII-009], which “Pre-emergence action against ALOMY” value is on record?
Its value is 90%.

For COC(=O)CCNC(=O)CSc1nn(-c2ccccc2F)c(-c2cncc(F)c2)c1Br [VII-010], which “Pre-emergence action against ALOMY” value is on record?
Its value is 90%.

system: Echinochloa crus-galli; assay: Pre-emergence herbicidal effect against ECHCG; assay type: in vivo; settings: 1280 g/ha, visual score after 3 weeks, 100% = plants have died, 0% = like control plants
Procedure, shortened: as §1

Which “Pre-emergence action against ECHCG” value does the source give for COC(=O)CNC(=O)CSc1nn(-c2ccccc2F)c(-c2cncc(F)c2)c1Br [VII-009] here?
Its value is 90%.

COC(=O)CCNC(=O)CSc1nn(-c2ccccc2F)c(-c2cncc(F)c2)c1Br [VII-010] was tested. Which “Pre-emergence action against ECHCG” value did it give?
The value was 90%.

system: Abutylon threophrasti; assay: Post-emergence herbicidal effect against ABUTH; assay type: in vivo; settings: 1280 g/ha, visual assessment about 3 weeks after treatment, 100% = plants have died, 0% = like control plants
Procedure, shortened: as §3

With COC(=O)CNC(=O)CSc1nn(-c2ccccc2F)c(-c2cncc(F)c2)c1Br [VII-009] as the compound, how does the “Post-emergence action against ABUTH” value read?
The value was 90%.

With COC(=O)CCNC(=O)CSc1nn(-c2ccccc2F)c(-c2cncc(F)c2)c1Br [VII-010] as the compound, how does the “Post-emergence action against ABUTH” value read?
Its value is 90%.

system: Echinochloa crus-galli; assay: Post-emergence herbicidal effect against ECHCG; assay type: in vivo; settings: 1280 g/ha, visual score after about 3 weeks, 100% = plants have died, 0% = like control plants
Procedure, shortened: as §3

Which “Post-emergence action against ECHCG” value does the source give for COC(=O)CNC(=O)CSc1nn(-c2ccccc2F)c(-c2cncc(F)c2)c1Br [VII-009] here?
Its value is 90%.

For COC(=O)CCNC(=O)CSc1nn(-c2ccccc2F)c(-c2cncc(F)c2)c1Br [VII-010], which “Post-emergence action against ECHCG” value is on record?
The value was 90%.

system: Setaria viridis; assay: Pre-emergence herbicidal effect against SETVI; assay type: in vivo; settings: 1280 g/ha, visual score after 3 weeks, 100% = plants have died, 0% = like control plants
Procedure, shortened: as §1

For COC(=O)CNC(=O)CSc1nn(-c2ccccc2F)c(-c2cncc(F)c2)c1Br [VII-009], which “Pre-emergence action against SETVI” value is on record?
Its value is 100%.

COC(=O)CCNC(=O)CSc1nn(-c2ccccc2F)c(-c2cncc(F)c2)c1Br [VII-010] was tested. Which “Pre-emergence action against SETVI” value did it give?
Its value is 100%.

system: Veronica persica; assay: Pre-emergence herbicidal effect against VERPE; assay type: in vivo; settings: 1280 g/ha, visual score after 3 weeks, 100% = plants have died, 0% = like control plants
Procedure, shortened: as §1

How did the “Pre-emergence action against VERPE” value turn out when COC(=O)CNC(=O)CSc1nn(-c2ccccc2F)c(-c2cncc(F)c2)c1Br [VII-009] was run?
Its value is 100%.

COC(=O)CCNC(=O)CSc1nn(-c2ccccc2F)c(-c2cncc(F)c2)c1Br [VII-010] was tested. Which “Pre-emergence action against VERPE” value did it give?
The value was 100%.

system: Lolium rigidum; assay: Pre-emergence herbicidal effect against LOLRI; assay type: in vivo; settings: 1280 g/ha, visual score after 3 weeks, 100% = plants have died, 0% = like control plants
Procedure, shortened: as §1

COC(=O)CNC(=O)CSc1nn(-c2ccccc2F)c(-c2cncc(F)c2)c1Br [VII-009] was tested. Which “Pre-emergence action against LOLRI” value did it give?
The value was 100%.

How did the “Pre-emergence action against LOLRI” value turn out when COC(=O)CCNC(=O)CSc1nn(-c2ccccc2F)c(-c2cncc(F)c2)c1Br [VII-010] was run?
The value was 100%.

system: Abutylon threophrasti; assay: Pre-emergence herbicidal effect against ABUTH; assay type: in vivo; settings: 1280 g/ha, visual score after 3 weeks, 100% = plants have died, 0% = like control plants
Excerpt: as §2

For COC(=O)CNC(=O)CSc1nn(-c2ccccc2F)c(-c2cncc(F)c2)c1Br [VII-009], which “Pre-emergence action against ABUTH” value is on record?
Its value is 90%.

system: Poa annua; assay: Post-emergence herbicidal effect against POAAN; assay type: in vivo; settings: 1280 g/ha, visual assessment about 3 weeks after treatment, 100% = plants have died, 0% = like control plants
Procedure, shortened: as §3

COC(=O)CNC(=O)CSc1nn(-c2ccccc2F)c(-c2cncc(F)c2)c1Br [VII-009] was tested. Which “Post-emergence action against POAAN” value did it give?
The value was 100%.

For COC(=O)CCNC(=O)CSc1nn(-c2ccccc2F)c(-c2cncc(F)c2)c1Br [VII-010], which “Post-emergence action against POAAN” value is on record?
The value was 100%.

system: Bassia scoparia; assay: Post-emergence herbicidal effect against KCHSC; assay type: in vivo; settings: 1280 g/ha, visual assessment about 3 weeks after treatment, 100% = plants have died, 0% = like control plants
Procedure, shortened: as §3

With COC(=O)CNC(=O)CSc1nn(-c2ccccc2F)c(-c2cncc(F)c2)c1Br [VII-009] as the compound, how does the “Post-emergence action against KCHSC” value read?
The value was 90%.

Which “Post-emergence action against KCHSC” value does the source give for COC(=O)CCNC(=O)CSc1nn(-c2ccccc2F)c(-c2cncc(F)c2)c1Br [VII-010] here?
Its value is 90%.

system: Stellaria media; assay: Pre-emergence herbicidal effect against STEME; assay type: in vivo; settings: 1280 g/ha, visual score after 3 weeks, 100% = plants have died, 0% = like control plants
Procedure, shortened: as §1

COC(=O)CNC(=O)CSc1nn(-c2ccccc2F)c(-c2cncc(F)c2)c1Br [VII-009] was tested. Which “Pre-emergence action against STEME” value did it give?
The value was 100%.

With COC(=O)CCNC(=O)CSc1nn(-c2ccccc2F)c(-c2cncc(F)c2)c1Br [VII-010] as the compound, how does the “Pre-emergence action against STEME” value read?
The value was 90%.

system: Alopecurus myosuroides; assay: Post-emergence herbicidal effect against ALOMY; assay type: in vivo; settings: 1280 g/ha, visual score after about 3 weeks, 100% = plants have died, 0% = like control plants
Procedure, shortened: as §3

How did the “Post-emergence action against ALOMY” value turn out when COC(=O)CNC(=O)CSc1nn(-c2ccccc2F)c(-c2cncc(F)c2)c1Br [VII-009] was run?
The value was 90%.

How did the “Post-emergence action against ALOMY” value turn out when COC(=O)CCNC(=O)CSc1nn(-c2ccccc2F)c(-c2cncc(F)c2)c1Br [VII-010] was run?
Its value is 90%.

system: Stellaria media; assay: Post-emergence herbicidal effect against STEME; assay type: in vivo; settings: 1280 g/ha, visual assessment about 3 weeks after treatment, 100% = plants have died, 0% = like control plants
Procedure, shortened: as §3

Which “Post-emergence action against STEME” value does the source give for COC(=O)CNC(=O)CSc1nn(-c2ccccc2F)c(-c2cncc(F)c2)c1Br [VII-009] here?
Its value is 100%.

system: Setaria viridis; assay: Post-emergence herbicidal effect against SETVI; assay type: in vivo; settings: 1280 g/ha, visual assessment about 3 weeks after treatment, 100% = plants have died, 0% = like control plants
Procedure, shortened: as §3

For COC(=O)CNC(=O)CSc1nn(-c2ccccc2F)c(-c2cncc(F)c2)c1Br [VII-009], which “Post-emergence action against SETVI” value is on record?
The value was 90%.

With COC(=O)CCNC(=O)CSc1nn(-c2ccccc2F)c(-c2cncc(F)c2)c1Br [VII-010] as the compound, how does the “Post-emergence action against SETVI” value read?
Its value is 90%.

system: Poa annua; assay: Pre-emergence herbicidal effect against POAAN; assay type: in vivo; settings: 1280 g/ha, visual score after 3 weeks, 100% = plants have died, 0% = like control plants
Procedure, shortened: as §1

For COC(=O)CNC(=O)CSc1nn(-c2ccccc2F)c(-c2cncc(F)c2)c1Br [VII-009], which “Pre-emergence action against POAAN” value is on record?
Its value is 100%.

Which “Pre-emergence action against POAAN” value does the source give for COC(=O)CCNC(=O)CSc1nn(-c2ccccc2F)c(-c2cncc(F)c2)c1Br [VII-010] here?
Its value is 100%.
